As usually defined, the LD50 is the dose expected to kill half of the subjects tested. Low values mean a more toxic substance, high ones a less toxic substance.

The record followed here is US4642314A, “Antiulcer compounds” (Nisshin Flour Milling Co., Ltd., priority 1984, dated 1987).

Some results are limits rather than exact numbers.

Data set [1] is described as follows: acute toxicity (LD50), intraperitoneal route in mice. The settings on record: mouse, in vivo, ip. It is filed as in vivo.
For a further data set, the system named is mice. The data set is described as above. It is filed as in vivo.
The subject of another data set is reserpine-induced ulcer. Briefly: Reserpine-induced ulcer (Preventive test). It is filed as in vivo, rat (male SD rats). The settings on record: Table 1; rat, 100 mg/kg oral, 30 min before reserpine 15 mg/kg i.p.; evaluated at 18 h; read-out: Preventive effect (preventive ratio). As for the experimental part: (§1) In the case of reserpine-induced ulcer, the assay was performed according to the description in "Arch. Int. Pharmacodym. Ther. 147,113 (1964)", and in the case of acetic acid-induced ulcer, the assay was performed according to the method described in "Jap. J. Pharmac. 19,418 (1969)", by inducing experimental ulcer in rat and evaluating the effect thereon of the compounds tested.
Groups of rats, each consisting of 6 male SD rats weighing 150-200 g were used. After 24 hours' fasting, a sample compound was orally administered to the rat at the dose of 100 mg/kg body weight, and 30 minutes after the administration, reserpine was intraperitoneally injected at the dose of 15 mg/kg body weight. Eighteen hours after the administration, the rats were killed with chloroform. The stomach was taken out, and severity of the hemorrhaging lesion was evaluated according to the method as above ("Arch. Int. Pharmacodym. Ther. 147,113 (1964)).
The preventive ratio was calculated using the following equation, [formula] wherein the control animals were intraperitoneally given reserpine only, at the dose of 15 mg/kg body weight.

Data set [2] deals with acetic acid-induced ulcer. Nature of the data set: Acetic acid-induced ulcer (Curative test). The format is in vivo, rat (male SD rats). To be noted: Table 2; rat, 0.05 ml of 15% acetic acid underneath the serosa; lesion area on 14th day. As for the experimental part: as §1
Groups of rats, each consisting of 6 male SD rats weighing 150-200 g were used. The stomach of ether-anesthesized rat was exposed and while taking acre not to injure blood vessels, 0.05 ml of 15% aqueous acetic acid solution was injected underneath the serosa. On the 14th day, the rats were killed with chloroform, the stomach taken out and the area of the infected lesion measured.
The curative ratio was calculated using the above equation: [formula]

As to `CC(=O)OCC=C(C)CCC=C(C)CCC=C(C)CCC=C(C)CCC=C(C)CCC=C(C)CCC=C(C)CCC=C(C)CCC=C(C)CCC=C(C)C` [Decaprenyl acetate], the LD50 (in data set [1] (Table 2); in the data set on mice (Table 1)) was greater than 5000 mg/kg each time. Further, the inhibition in vivo at 100 mg/kg with reserpine-induced ulcer was in the range of 40 to 60%. For the same molecule, the “Curative effect (curative ratio)” value in data set [2] is “+ (10%-25%)”.

`CC(C)=CCCC(C)=CCCC(C)=CCCC(C)=CCCC(C)=CCCC(C)=CCCC(C)=CCCC(C)=CCCC(C)=CCCC(C)=CCCC(=O)OCC=C(C)CCC=C(C)CCC=C(C)CCC=C(C)CCC=C(C)CCC=C(C)CCC=C(C)CCC=C(C)CCC=C(C)CCC=C(C)C` [Decaprenyl decaprenylacetate] showed an LD50 in the data set with mice (Table 2) greater than 5000 mg/kg. The “Curative effect (curative ratio)” value in data set [2] is on record as “+ (10%-25%)”.

As to `CCCCCCCC/C=C\CCCCCCCC(=O)OCC=C(C)CCC=C(C)CCC=C(C)CCC=C(C)CCC=C(C)CCC=C(C)CCC=C(C)CCC=C(C)CCC=C(C)CCC=C(C)C` [Decaprenyl oleate], the 50% lethal dose (LD50) (in data set [1] (Table 2); with mice (Table 1)) was greater than 5000 mg/kg each time. Besides, the inhibition in vivo at 100 mg/kg with reserpine-induced ulcer was in the range of 40 to 60%. Further, in data set [2], the “Curative effect (curative ratio)” value is on record as “++ (25%-40%)”.

In the case of `CC(C)=CCCC(C)=CCCC(C)=CCCC(C)=CCCC(C)=CCCC(C)=CCCC(C)=CCCC(C)=CCCC(C)=CCCC(C)=CCOC(=O)CCC=C(C)CCCC(C)CCCC(C)CCCC(C)C` (stereo not shown) [Decaprenyl phytylacetate], the 50% lethal dose (LD50) (in data set [1] (Table 2); in the data set on mice (Table 1)) was greater than 5000 mg/kg throughout. The inhibition in vivo at 100 mg/kg in the data set with reserpine-induced ulcer lay within 40 to 60%. In data set [2], the “Curative effect (curative ratio)” value is “++ (25%-40%)”.

For `CC(C)=CCCC(C)=CCCC(C)=CCCC(C)=CCCC(C)=CCCC(C)=CCCC(C)=CCCC(C)=CCCC(C)=CCCC(C)=CCCC(=O)O` [Decaprenylacetic acid], the LD50 (in data set [1] (Table 2); in the data set with mice (Table 1)) was greater than 4000 mg/kg throughout. The inhibition in vivo at 100 mg/kg in the data set on reserpine-induced ulcer lay within 40 to 60%. In addition, in data set [2], the “Curative effect (curative ratio)” value is recorded as “+++ (40%-)”.

`CC(C)=CCCC(C)=CCCC(C)=CCCC(=O)OCC=C(C)CCC=C(C)C` [Gefarnate, 3,7-dimethyl-2,6-octadienyl-5,9,13-trimethyl-4,8,12-tetradecatrienoate, reference compound]: in the data set with reserpine-induced ulcer, the inhibition in vivo at 100 mg/kg is 10 to 40%. The “Curative effect (curative ratio)” value in data set [2] is recorded as “± (-10%)”.

In the case of `C=CC(C)(O)CCC=C(C)CCC=C(C)CCC=C(C)CCC=C(C)CCC=C(C)CCC=C(C)CCC=C(C)CCC=C(C)CCC=C(C)C` (stereo not shown) [Isodecaprenol], the 50% lethal dose (LD50) (in data set [1] (Table 1); with mice (Table 2)) was greater than 4000 mg/kg throughout. Further, the inhibition in vivo at 100 mg/kg with reserpine-induced ulcer was 10 to 40%. For the same molecule, the “Curative effect (curative ratio)” value in data set [2] is “++ (25%-40%)”.

As to `C=CC(C)(CCCC(C)CCCC(C)CCCC(C)C)OC(=O)CCCCCCC/C=C\CCCCCCCC` (stereo not shown) [Isophytyl oleate], the LD50 (in data set [1] (Table 2); in the data set on mice (Table 1)) was greater than 4000 mg/kg each time. Besides, the inhibition in vivo at 100 mg/kg in the data set with reserpine-induced ulcer was greater than 60%. The “Curative effect (curative ratio)” value in data set [2] is listed as “+++ (40%-)”.

`CC(=O)OC/C=C(\C)CCC[C@H](C)CCC[C@H](C)CCCC(C)C` [Phytyl acetate]: the 50% lethal dose (LD50) (in data set [1] (Table 2); in the data set with mice (Table 1)) was greater than 5000 mg/kg each time. Moreover, the inhibition in vivo at 100 mg/kg with reserpine-induced ulcer was 40 to 60%. Besides, the “Curative effect (curative ratio)” value in data set [2] is “+ (10%-25%)”.

Take `CCCCCCCC/C=C/CCCCCCCCCCCC(=O)OC/C=C(\C)CCC[C@H](C)CCC[C@H](C)CCCC(C)C` [Phytyl brassidate]: the 50% lethal dose (LD50) (in data set [1] (Table 2); with mice (Table 1)) was greater than 4000 mg/kg in each case. Besides, in the data set on reserpine-induced ulcer, the inhibition in vivo at 100 mg/kg lay in the range of 10 to 40%. Besides, the “Curative effect (curative ratio)” value in data set [2] was “++ (25%-40%)”.

For `CC(C)=CCCC(C)=CCCC(C)=CCCC(C)=CCCC(C)=CCCC(C)=CCCC(C)=CCCC(C)=CCCC(C)=CCCC(C)=CCCC(=O)OCC=C(C)CCCC(C)CCCC(C)CCCC(C)C` (stereo not shown) [Phytyl decaprenylacetate], the LD50 (in data set [1] (Table 2); in the data set on mice (Table 1)) was greater than 4000 mg/kg in each case. The inhibition in vivo at 100 mg/kg in the data set with reserpine-induced ulcer lay in the range of 10 to 40%. Also, the “Curative effect (curative ratio)” value in data set [2] is reported as “+ (10%-25%)”.

Regarding `CCCCCCCC/C=C\CCCCCCCC(=O)OC/C=C(\C)CCC[C@H](C)CCC[C@H](C)CCCC(C)C` [Phytyl oleate], the LD50 (in data set [1] (Table 2); in the data set on mice (Table 1)) was greater than 4000 mg/kg throughout. For the same molecule, the inhibition in vivo at 100 mg/kg with reserpine-induced ulcer was greater than 60%. Moreover, the “Curative effect (curative ratio)” value in data set [2] is listed as “+++ (40%-)”.

On to `C/C(=C\CCC(=O)O)CCC[C@H](C)CCC[C@H](C)CCCC(C)C` [Phytylacetic acid], for which the 50% lethal dose (LD50) (in data set [1] (Table 2); with mice (Table 1)) was greater than 5000 mg/kg in each case. The inhibition in vivo at 100 mg/kg with reserpine-induced ulcer lay in the range of 10 to 40%. Besides, the “Curative effect (curative ratio)” value in data set [2] was “+ (10%-25%)”.

For `CC(C)CCCC(C)CCCC(C)CCCC(C)CCCC(C)CCCC(C)CCCC(C)CCCC(C)CCCC(C)CCCC(C)CCO` (stereo not shown) [Saturated decaprenol], the median lethal dose (LD50) (in data set [1] (Table 1); with mice (Table 2)) was greater than 5000 mg/kg each time. Also, in the data set with reserpine-induced ulcer, the inhibition in vivo at 100 mg/kg was 10 to 40%. Moreover, the “Curative effect (curative ratio)” value in data set [2] is recorded as “++ (25%-40%)”.

For the molecule `CC(C)=CCC/C(C)=C/CC/C(C)=C/CC/C(C)=C/CC/C(C)=C/CC/C(C)=C/CC/C(C)=C/CC/C(C)=C/CC/C(C)=C/CO` [Solanesol], the LD50 (in data set [1] (Table 1); in the data set on mice (Table 2)) was greater than 4000 mg/kg in each case. Besides, the inhibition in vivo at 100 mg/kg with reserpine-induced ulcer lay within 10 to 40%. For the same molecule, the “Curative effect (curative ratio)” value in data set [2] is listed as “++ (25%-40%)”.

With `CCCCCCCC/C=C\CCCCCCCC(=O)OCC=C(C)CCC=C(C)CCC=C(C)CCC=C(C)CCC=C(C)CCC=C(C)CCC=C(C)CCC=C(C)CCC=C(C)C` [Solanesyl oleate], the LD50 (in data set [1] (Table 2); in the data set with mice (Table 1)) was greater than 4000 mg/kg each time. For the same molecule, the inhibition in vivo at 100 mg/kg with reserpine-induced ulcer lay within 10 to 40%. Also, the “Curative effect (curative ratio)” value in data set [2] is reported as “++ (25%-40%)”.

Regarding `CC(C)=CCCC(C)=CCCC(C)=CCCC(C)=CCCC(C)=CCCC(C)=CCCC(C)=CCCC(C)=CCCC(C)=CCOC(=O)CCC=C(C)CCCC(C)CCCC(C)CCCC(C)C` (stereo not shown) [Solanesyl phytylacetate], the LD50 in data set [1] (Table 1) was greater than 4000 mg/kg. The inhibition in vivo at 100 mg/kg in the data set on reserpine-induced ulcer lay in the range of 10 to 40%.

In data set [1] (Table 1), `CC(C)=CCCC(C)=CCCC(C)=CCCC(C)=CCCC(C)=CCCC(C)=CCCC(C)=CCCC(C)=CCCC(C)=CCCC(=O)OCC=C(C)CCC=C(C)CCC=C(C)CCC=C(C)CCC=C(C)CCC=C(C)CCC=C(C)CCC=C(C)CCC=C(C)C` [Solanesyl solanesylacetate] yielded a median lethal dose (LD50) greater than 4000 mg/kg. Also, the inhibition in vivo at 100 mg/kg in the data set with reserpine-induced ulcer lay in the range of 10 to 40%.

The molecule `CC(C)=CCCC(C)CCCC(=O)Oc1c(C)c(C)c2c(c1C)CCC(C)(CCCC(C)CCCC(C)CCCC(C)C)O2` (stereo not drawn) [α-Tocopheryl citronellylacetate] displayed a median lethal dose (LD50) in data set [1] (Table 1) greater than 4000 mg/kg. Further, in the data set on reserpine-induced ulcer, the inhibition in vivo at 100 mg/kg was greater than 60%.

Turning to `CC(C)=CCCC(C)=CCCC(C)=CCCC(C)=CCCC(C)=CCCC(C)=CCCC(C)=CCCC(C)=CCCC(C)=CCCC(C)=CCCC(=O)Oc1c(C)c(C)c2c(c1C)CCC(C)(CCCC(C)CCCC(C)CCCC(C)C)O2` (stereo not drawn) [α-Tocopheryl decaprenylacetate], the LD50 in data set [1] (Table 1) is greater than 4000 mg/kg. Also, in the data set with reserpine-induced ulcer, the inhibition in vivo at 100 mg/kg is 10 to 40%.

Regarding `CC(C)=CCCC(C)=CCCC(C)=CCCC(=O)Oc1c(C)c(C)c2c(c1C)CCC(C)(CCCC(C)CCCC(C)CCCC(C)C)O2` (stereo not drawn) [α-Tocopheryl farnesylacetate], the LD50 (in data set [1] (Table 2); in the data set with mice (Table 1)) was greater than 4000 mg/kg in each case. Also, the inhibition in vivo at 100 mg/kg with reserpine-induced ulcer fell in the range of 40 to 60%. In addition, the “Curative effect (curative ratio)” value in data set [2] is reported as “++ (25%-40%)”.

Take `CC(C)=CCCC(C)=CCCC(=O)Oc1c(C)c(C)c2c(c1C)CCC(C)(CCCC(C)CCCC(C)CCCC(C)C)O2` (stereo not drawn) [α-Tocopheryl geranylacetate]: the LD50 (in data set [1] (Table 2); in the data set on mice (Table 1)) was greater than 4000 mg/kg each time. For the same molecule, the inhibition in vivo at 100 mg/kg with reserpine-induced ulcer was 40 to 60%. In addition, in data set [2], the “Curative effect (curative ratio)” value was “+ (10%-25%)”.

Regarding `CC(=CCCC(=O)Oc1c(C)c(C)c2c(c1C)CCC(C)(CCCC(C)CCCC(C)CCCC(C)C)O2)CCCC(C)CCCC(C)CCCC(C)C` (stereo not drawn) [α-Tocopheryl phytylacetate], the LD50 (in data set [1] (Table 2); in the data set on mice (Table 1)) was greater than 4000 mg/kg each time. For the same molecule, the inhibition in vivo at 100 mg/kg with reserpine-induced ulcer lay in the range of 10 to 40%. Besides, the “Curative effect (curative ratio)” value in data set [2] is “+++ (40%-)”.

In turn, `CC(C)=CCCC(C)=CCCC(C)=CCCC(C)=CCCC(C)=CCCC(C)=CCCC(C)=CCCC(C)=CCCC(C)=CCCC(=O)Oc1c(C)c(C)c2c(c1C)CCC(C)(CCCC(C)CCCC(C)CCCC(C)C)O2` (stereo not drawn) [α-Tocopheryl solanesylacetate] returned an LD50 in data set [1] (Table 1) greater than 4000 mg/kg. Moreover, the inhibition in vivo at 100 mg/kg in the data set on reserpine-induced ulcer lay in the range of 40 to 60%.
